Article PMC10683025, “Discovery of a Hydroxylamine-Based Brain-Penetrant EGFR Inhibitor for Metastatic Non-Small-Cell Lung Cancer” (Journal of Medicinal Chemistry, 2023)

Legend:
[1] = molecular target: T1, CYP2C9 (Homo sapiens, UniProt P11712); assay type: in vitro ADME; conditions: liver microsomes
T1 construct: tissue BD Gentest; host or cells: pooled human liver microsomes
Protocol: (§1) The activities tested were CYP1A2-mediated phenacetin O-demethylation, CYP2C19-mediated (S)-mephenyotin 4′-hydroxylation, CYP2C9-mediated diclofenac 4′-hydroxylation, CYP2D6-mediated dextromethorphan O-demethylation, and CYP3A4-mediated midazolam 1′-hydroxylation. […] The reactions were initiated by adding NADPH (1 mM final concentration) after a 5 min preincubation, and the assay was run in duplicate (n = 2). Samples were analyzed by ultra-performance liquid chromatography tandem mass spectrometry (UPLC-MS/MS).

[2] = molecular target: T2, CYP3A4 (Homo sapiens, UniProt P08684); experiment: CYP450 inhibition in human liver microsomes; assay type: in vitro ADME; conditions: midazolam
T2 construct: incubated with pooled human liver microsomes (0.5 mg/mL) (BD Gentest); tissue BD Gentest; host or cells: pooled human liver microsomes
Protocol: as §1

[3] = tested on: TA1537; experiment: Background bacterial cytotoxicity assay; set-up: species or system Salmonella; key to Flag: A cytotoxicity value of less than 60% is flagged and the compound is considered as toxic (denoted as Cytox.); A hyphen (-) denotes no cytotoxicity at the respective concentration
Protocol: Compounds were assessed for mutagenicity at the Eurofins Panlabs in 384-well plates using four Salmonella strains: TA98, to probe for frameshift mutation (with quercetin as control), TA100 and TA1535, to probe for base pair insertions/deletions (with streptozotocin as control), and TA1537, to probe for frameshift mutations (with aminacridine as control) as previously described.[78] Each compound was incubated at 37 °C for 96 h at four different concentrations (5, 10, 50, and 100 μM), with each concentration tested using 48 replicates, both with and without rat liver S9 metabolic activation. A concurrent bacterial cytotoxicity assay was run at 0.6, 1.2, 2.5, 5, 10, 25, 50, and 100 μM to rule out false negatives. Bacterial cytotoxicity was expressed as percent of control growth (OD650). Compounds with growth of less than 60% control were flagged and considered bacterial cytotoxic. […] Significances of the positive counts between the treatment and control were determined using a one-tailed Fisher’s exact test.

[4] = Oral CNS pharmacokinetic assessment; assay type: in vivo, CD1 mice; conditions: male, CD1, brain/plasma, Mouse 40 mg/kg (PO)
Protocol: Animal experiments were performed at Pharmaron, Inc. and animal use was approved by Pharmaron’s Institutional Animal Care and Use Committee (IACUC) in Pharmaron (Pharmaron IACUC, Protocol #PK-M-07182022, #PK-R-06012022, and #ON-CELL-XEN-06012022) following the guidance of AAALAC. Six- to eight-week-old male Sprague-Dawley rats (approximately 200–300 g) obtained from Si Bei Fu Laboratory Animal Technology Co., six- to eight-week-old male CD1 mice (approximately 20–30 g) obtained from Si Bei Fu Laboratory Animal Technology Co., and six- to eight-week-old female BALB/c nude mice (approximately 20–30 g) obtained from Si Bei Fu Laboratory Animal Technology Co., were used in the pharmacokinetic studies. Six- to eight-week-old female BALB/c nude mice (approximately 18–22 g) obtained from Beijing Anikeeper Biotech Co., Ltd. were used in the intracranial PDX study. […]
Oral CNS pharmacokinetic assessment of 9 was done by oral gavage (formulation: 1% methylcellulose) followed by blood and brain sampling at 7 time points (0.25, 0.5, 1, 2, 4, 8, 24 h post dose) with n = 3 animals per time point (n = 21 total). […] Concentrations of 9 in the plasma and brain samples were determined using LC-MS/MS and WinNonlin 8.3 (Phoenix) was used for pharmacokinetic calculations. […]

[5] = molecular target: T3, ABL1(H396P)-nonphosphorylated (Homo sapiens, UniProt P00519, H396P); experiment: KINOMEScan; assay type: binding; conditions: read-out: Percent Control
T3 construct: purchased Eurofins DiscoverX
Text: (§2) Percent control was mapped onto the kinome tree using TREEspot.

[6] = molecular target: T4, ABL1-nonphosphorylated (Homo sapiens, UniProt P00519); experiment: KINOMEScan; assay type: binding; conditions: read-out: Percent Control
T4 construct: purchased Eurofins DiscoverX
Text: as §2

[7] = molecular target: T5, ADCK4 (Homo sapiens, UniProt Q96D53); experiment: KINOMEScan; assay type: binding; conditions: ADCK4, 1 µM; read-out: Percent Control
T5 construct: purchased Eurofins DiscoverX (KINOMEscan)
Text: as §2

[8] = molecular target: T6, AKT3 (Homo sapiens, UniProt Q9Y243); experiment: KINOMEScan; assay type: binding; conditions: AKT3, 1 µM; read-out: Percent Control
T6 construct: purchased Eurofins DiscoverX (KINOMEscan)
Text: as §2

[9] = molecular target: T7, ASK2 (Homo sapiens, UniProt O95382); experiment: KINOMEScan; assay type: binding; conditions: ASK2, 1 µM; read-out: Percent Control
T7 construct: purchased Eurofins DiscoverX (KINOMEscan)

[10] = molecular target: T8, AXL (Homo sapiens, UniProt P30530); experiment: KINOMEScan; assay type: binding; conditions: read-out: Percent Control
T8 construct: purchased Eurofins DiscoverX (KINOMEscan)
Text: as §2

[11] = molecular target: T9, BIKE (Homo sapiens, UniProt Q9NSY1); experiment: KINOMEScan; assay type: binding; conditions: read-out: Percent Control
T9 construct: purchased Eurofins DiscoverX (KINOMEscan)
Text: as §2

[12] = molecular target: T10, ZAK (Homo sapiens, UniProt Q9NYL2); experiment: KINOMEScan; assay type: binding; conditions: read-out: Percent Control
T10 construct: purchased Eurofins DiscoverX (KINOMEScan service)

[13] = molecular target: T11, PIKFYVE (Homo sapiens, UniProt Q9Y2I7); experiment: KINOMEScan; assay type: binding; conditions: read-out: Percent Control
T11 construct: purchased Eurofins DiscoverX (KINOMEScan service)

T8 sequence (P30530 26-894): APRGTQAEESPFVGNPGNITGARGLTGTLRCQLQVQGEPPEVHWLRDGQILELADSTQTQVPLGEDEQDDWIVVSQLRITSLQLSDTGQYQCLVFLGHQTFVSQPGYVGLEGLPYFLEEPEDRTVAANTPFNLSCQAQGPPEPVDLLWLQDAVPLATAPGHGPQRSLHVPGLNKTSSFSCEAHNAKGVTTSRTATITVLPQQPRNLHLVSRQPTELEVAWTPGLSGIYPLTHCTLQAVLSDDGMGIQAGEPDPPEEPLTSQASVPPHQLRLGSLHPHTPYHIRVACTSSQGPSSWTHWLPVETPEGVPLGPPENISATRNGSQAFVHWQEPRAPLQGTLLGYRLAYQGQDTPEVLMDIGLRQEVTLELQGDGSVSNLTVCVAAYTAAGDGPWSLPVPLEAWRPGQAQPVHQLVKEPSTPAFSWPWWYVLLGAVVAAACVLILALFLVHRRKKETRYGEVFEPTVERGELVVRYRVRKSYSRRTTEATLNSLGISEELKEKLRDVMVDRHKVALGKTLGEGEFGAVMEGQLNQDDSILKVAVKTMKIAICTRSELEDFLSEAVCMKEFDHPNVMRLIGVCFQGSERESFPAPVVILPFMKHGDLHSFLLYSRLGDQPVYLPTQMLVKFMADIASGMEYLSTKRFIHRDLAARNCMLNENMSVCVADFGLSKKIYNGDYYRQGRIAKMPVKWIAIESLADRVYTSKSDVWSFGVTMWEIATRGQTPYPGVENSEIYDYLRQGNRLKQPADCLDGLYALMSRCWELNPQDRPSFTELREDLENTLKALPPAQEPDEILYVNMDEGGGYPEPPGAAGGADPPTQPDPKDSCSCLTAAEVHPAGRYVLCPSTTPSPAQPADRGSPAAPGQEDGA
T5 sequence (Q96D53 whole entry): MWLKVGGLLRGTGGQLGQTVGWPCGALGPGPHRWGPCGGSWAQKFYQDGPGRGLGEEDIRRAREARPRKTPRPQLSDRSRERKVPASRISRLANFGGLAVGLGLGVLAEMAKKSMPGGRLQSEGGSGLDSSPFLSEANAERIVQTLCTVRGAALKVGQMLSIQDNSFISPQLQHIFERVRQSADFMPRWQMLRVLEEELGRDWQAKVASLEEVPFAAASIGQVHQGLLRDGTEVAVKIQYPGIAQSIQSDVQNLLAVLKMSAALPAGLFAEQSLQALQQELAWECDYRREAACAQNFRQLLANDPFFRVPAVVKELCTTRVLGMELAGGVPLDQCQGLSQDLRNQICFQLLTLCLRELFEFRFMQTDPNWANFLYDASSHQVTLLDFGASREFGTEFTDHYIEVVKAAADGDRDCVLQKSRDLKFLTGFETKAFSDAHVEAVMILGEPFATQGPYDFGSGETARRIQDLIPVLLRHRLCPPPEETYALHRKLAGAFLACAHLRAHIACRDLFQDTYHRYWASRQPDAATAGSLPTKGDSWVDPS
T2 sequence (P08684 whole entry): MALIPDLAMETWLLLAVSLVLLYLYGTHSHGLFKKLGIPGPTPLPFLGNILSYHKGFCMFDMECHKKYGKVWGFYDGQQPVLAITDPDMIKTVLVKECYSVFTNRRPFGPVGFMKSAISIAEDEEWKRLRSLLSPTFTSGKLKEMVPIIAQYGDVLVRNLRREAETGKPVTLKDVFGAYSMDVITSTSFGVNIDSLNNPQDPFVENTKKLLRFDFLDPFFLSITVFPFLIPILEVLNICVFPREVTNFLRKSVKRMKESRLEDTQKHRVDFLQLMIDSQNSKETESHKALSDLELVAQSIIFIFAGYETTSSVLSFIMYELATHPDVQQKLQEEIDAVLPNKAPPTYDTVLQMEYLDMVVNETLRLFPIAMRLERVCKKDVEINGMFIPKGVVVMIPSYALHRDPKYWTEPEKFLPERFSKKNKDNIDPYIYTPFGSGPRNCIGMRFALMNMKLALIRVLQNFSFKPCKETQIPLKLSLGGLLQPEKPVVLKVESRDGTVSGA
T10 sequence (Q9NYL2 whole entry): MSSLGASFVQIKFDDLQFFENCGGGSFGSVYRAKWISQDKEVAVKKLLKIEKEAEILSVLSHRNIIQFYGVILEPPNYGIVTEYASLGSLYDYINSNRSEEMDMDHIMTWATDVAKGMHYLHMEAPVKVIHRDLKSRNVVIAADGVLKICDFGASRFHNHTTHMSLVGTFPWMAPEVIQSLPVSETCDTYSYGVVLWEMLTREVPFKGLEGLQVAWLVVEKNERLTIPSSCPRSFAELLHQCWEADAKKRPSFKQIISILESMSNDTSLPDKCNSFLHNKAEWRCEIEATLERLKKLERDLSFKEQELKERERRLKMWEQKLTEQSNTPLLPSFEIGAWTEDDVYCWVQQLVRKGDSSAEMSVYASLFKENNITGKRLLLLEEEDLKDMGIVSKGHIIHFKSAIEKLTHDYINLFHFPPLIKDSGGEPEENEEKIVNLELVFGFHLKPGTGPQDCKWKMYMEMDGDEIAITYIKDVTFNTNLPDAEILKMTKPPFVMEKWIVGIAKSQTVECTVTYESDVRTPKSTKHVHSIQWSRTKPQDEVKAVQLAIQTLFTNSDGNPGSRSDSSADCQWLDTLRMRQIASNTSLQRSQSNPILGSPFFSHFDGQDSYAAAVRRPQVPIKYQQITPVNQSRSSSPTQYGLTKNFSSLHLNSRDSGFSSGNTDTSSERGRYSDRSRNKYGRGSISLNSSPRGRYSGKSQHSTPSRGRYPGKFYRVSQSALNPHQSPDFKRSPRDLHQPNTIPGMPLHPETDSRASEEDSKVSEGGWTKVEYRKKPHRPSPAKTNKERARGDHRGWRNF
T9 sequence (Q9NSY1 whole entry): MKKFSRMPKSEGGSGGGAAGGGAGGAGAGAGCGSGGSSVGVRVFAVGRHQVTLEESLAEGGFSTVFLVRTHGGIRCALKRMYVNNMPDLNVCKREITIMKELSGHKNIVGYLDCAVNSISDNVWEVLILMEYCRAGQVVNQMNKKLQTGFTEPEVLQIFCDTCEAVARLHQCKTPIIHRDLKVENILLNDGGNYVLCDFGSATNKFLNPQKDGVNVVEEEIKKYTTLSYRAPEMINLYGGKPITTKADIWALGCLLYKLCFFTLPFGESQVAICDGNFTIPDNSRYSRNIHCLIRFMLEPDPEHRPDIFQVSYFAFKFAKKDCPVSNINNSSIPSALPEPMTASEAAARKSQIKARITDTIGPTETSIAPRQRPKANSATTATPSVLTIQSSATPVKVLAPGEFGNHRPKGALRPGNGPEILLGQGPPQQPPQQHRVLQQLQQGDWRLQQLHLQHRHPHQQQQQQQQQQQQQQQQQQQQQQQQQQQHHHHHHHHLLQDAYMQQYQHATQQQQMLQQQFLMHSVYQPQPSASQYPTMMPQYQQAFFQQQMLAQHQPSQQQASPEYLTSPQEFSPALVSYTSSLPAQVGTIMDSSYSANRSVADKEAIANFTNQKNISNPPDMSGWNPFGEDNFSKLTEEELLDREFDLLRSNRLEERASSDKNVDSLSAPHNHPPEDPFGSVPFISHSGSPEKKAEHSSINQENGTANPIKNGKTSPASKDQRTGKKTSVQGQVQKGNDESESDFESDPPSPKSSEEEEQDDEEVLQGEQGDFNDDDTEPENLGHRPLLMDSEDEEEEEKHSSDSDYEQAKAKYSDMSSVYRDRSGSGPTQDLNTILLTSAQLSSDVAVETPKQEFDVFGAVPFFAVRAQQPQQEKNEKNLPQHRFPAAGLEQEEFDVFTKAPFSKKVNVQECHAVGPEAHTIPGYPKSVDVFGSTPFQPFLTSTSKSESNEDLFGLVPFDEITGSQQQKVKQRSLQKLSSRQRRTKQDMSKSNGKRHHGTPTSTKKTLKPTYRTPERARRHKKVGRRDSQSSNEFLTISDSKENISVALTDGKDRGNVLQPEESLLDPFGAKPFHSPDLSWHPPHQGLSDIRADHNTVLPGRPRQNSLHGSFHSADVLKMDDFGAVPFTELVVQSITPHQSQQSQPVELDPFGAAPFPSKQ
T6 sequence (Q9Y243 whole entry): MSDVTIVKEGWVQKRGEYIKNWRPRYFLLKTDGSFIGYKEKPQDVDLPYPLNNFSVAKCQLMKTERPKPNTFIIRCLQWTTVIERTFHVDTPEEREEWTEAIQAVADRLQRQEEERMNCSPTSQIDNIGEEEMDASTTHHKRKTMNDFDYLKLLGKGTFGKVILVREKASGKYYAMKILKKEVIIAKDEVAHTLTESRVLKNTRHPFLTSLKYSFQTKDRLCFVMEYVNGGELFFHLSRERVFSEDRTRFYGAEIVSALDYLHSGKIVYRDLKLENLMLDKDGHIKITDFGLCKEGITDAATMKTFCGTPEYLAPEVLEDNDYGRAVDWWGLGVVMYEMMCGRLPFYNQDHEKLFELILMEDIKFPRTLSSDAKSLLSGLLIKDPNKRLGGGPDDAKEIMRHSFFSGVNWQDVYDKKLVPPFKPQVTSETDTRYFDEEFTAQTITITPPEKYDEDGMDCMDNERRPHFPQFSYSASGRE
T1 sequence (P11712 whole entry): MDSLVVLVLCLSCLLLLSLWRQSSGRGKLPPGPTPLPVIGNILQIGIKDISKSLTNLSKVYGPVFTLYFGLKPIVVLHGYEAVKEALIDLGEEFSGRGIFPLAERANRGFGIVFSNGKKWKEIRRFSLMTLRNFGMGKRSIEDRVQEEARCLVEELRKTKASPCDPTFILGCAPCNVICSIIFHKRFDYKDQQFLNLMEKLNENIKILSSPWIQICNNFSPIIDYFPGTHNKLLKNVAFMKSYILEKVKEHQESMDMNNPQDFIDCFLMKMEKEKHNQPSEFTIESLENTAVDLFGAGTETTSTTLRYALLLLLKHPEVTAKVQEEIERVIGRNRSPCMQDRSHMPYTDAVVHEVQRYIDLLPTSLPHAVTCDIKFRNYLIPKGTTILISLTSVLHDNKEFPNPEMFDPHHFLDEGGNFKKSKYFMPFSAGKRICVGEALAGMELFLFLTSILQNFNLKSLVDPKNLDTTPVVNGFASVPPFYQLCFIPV

Compound: COc1cc2ncnc(Nc3cccc(Cl)c3F)c2cc1OCCON1CCN(C)CC1 [Compound 9, N-(3-Chloro-2-fluorophenyl)-7-methoxy-6-(2-((4-methylpiperazin-1-yl)oxy)ethoxy)quinazolin-4-amine]
- IC50 [1]: > 30 µM
- IC50 [2]: > 30 µM
- Flag ([3]; TA1537-S9, 1.0E-04 M): -
- Mean % Control (n = 3) ([3]; TA1537-S9, 1.0E-04 M): 60.3%
- Flag ([3]; TA1537-S9, 1.0E-05 M): -
- Mean % Control (n = 3) ([3]; TA1537-S9, 1.0E-05 M): 88.7%
- Flag ([3]; TA1537-S9, 1.2E-06 M): -
- Mean % Control (n = 3) ([3]; TA1537-S9, 1.2E-06 M): 98.4%
- Flag ([3]; TA1537-S9, 2.5E-05 M): -
- Mean % Control (n = 3) ([3]; TA1537-S9, 2.5E-05 M): 83.8%
- Flag ([3]; TA1537-S9, 2.5E-06 M): -
- Mean % Control (n = 3) ([3]; TA1537-S9, 2.5E-06 M): 90.5%
- Flag ([3]; TA1537-S9, 5.0E-05 M): -
- Mean % Control (n = 3) ([3]; TA1537-S9, 5.0E-05 M): 71.1%
- Flag ([3]; TA1537-S9, 5.0E-06 M): -
- Mean % Control (n = 3) ([3]; TA1537-S9, 5.0E-06 M): 98.8%
- Flag ([3]; TA1537-S9, 6.0E-07 M): -
- Mean % Control (n = 3) ([3]; TA1537-S9, 6.0E-07 M): 101.7%
- Kp at 24 h ([4]; read-out: Kp brain (AUCinf)): 0.77
- Kp uu at 24 h ([4]; read-out: Kp,uu brain (AUCinf)): 0.45
- remaining binding at 1 µM [5]: 1%
- remaining binding at 1 µM [6]: 8.9%
- remaining binding at 1 µM [7]: 79%
- remaining binding at 1 µM [8]: 68%
- remaining binding at 1 µM [9]: 85%
- remaining binding at 1 µM [10]: 100%
- remaining binding at 1 µM [11]: 99%
- remaining binding at 1 µM [12]: 89%
- remaining binding at 1 µM [13]: 1.6%
